The record followed here is patent US9315494B2, “Alkyl-amide-substituted pyridyl compounds useful as modulators of IL-12, IL-23 and/or IFNα responses” (Bristol-Myers Squibb Company, priority 2012, dated 2016).

In test [1] the test system is IFNα-stimulated STAT-dependent luciferase reporter in Kit225 T cells. The test can be described thus: Kit225 T cell assay, IFNα stimulated STAT-dependent luciferase reporter. In kind it is cell-based, human. As to conditions: Kit225 T cells, 200 U/mL human recombinant IFNα, 5-6 hours, luciferase; read-out: IFNα (Kit225 T Cell Inhibition Data). An outline of the steps:
(§1)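 Kit225 T cells carrying a stably integrated STAT-luciferase reporter, in RPMI with 10% heat-inactivated FBS, were stimulated with 20 ng/mL IL-23 or 200 U/mL IFNα for 5-6 h. Readout was luminescence from the luciferase reporter.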

Test [2] deals with IL-23-stimulated STAT-dependent luciferase reporter in Kit225 T cells. As to the kind of experiment: Kit225 T cell assay, IL-23 stimulated STAT-dependent luciferase reporter. In kind it is cell-based, human. As to conditions: Kit225 T cells, 20 ng/mL human recombinant IL-23, 5-6 hours, luciferase; read-out: IL23 (Kit225 T Cell Inhibition Data). An outline of the steps:
as §1
(Reporter assays use an easily measured gene product as a stand-in for the process of interest.)

With `CNC(=O)c1cnc(Nc2ccc(C(=O)N(C)C)cn2)cc1Nc1ccc(Cl)cc1OC` [Example 262], the IC50 in test [1] worked out at 410 nM; in test [2] it was 727 nM.

Turning to `CNC(=O)c1cnc(Nc2ccc(C(=O)N3CCOCC3)cn2)cc1Nc1ccc(Cl)cc1OC` [Example 263], the IC50 in test [1] came to 3600 nM; in test [2] it was 5060 nM.

In the case of `CNC(=O)c1cnc(Nc2cc(C(N)=O)ccn2)cc1Nc1cc(F)cc(F)c1OC` [Example 264], the values for the IC50 in test [1] and in test [2] were 350 nM and 542 nM, respectively.

As for `CNC(=O)c1cnc(Nc2cc(C(=O)N3CCOCC3)ccn2)cc1Nc1cc(F)cc(F)c1OC` [Example 265], the IC50 worked out at 210 nM in test [1] and 319 nM in test [2].

As to `CNC(=O)c1cnc(Nc2cc(C(N)=O)ccn2)cc1Nc1ccc(F)cc1OC` [Example 267], the IC50 in test [1] is 1830 nM; in test [2], 2640 nM.

Take `CNC(=O)c1cnc(Nc2cc(C(=O)N3CCCC3)ccn2)cc1Nc1ccc(F)cc1OC` [Example 268]: the IC50 in test [1] turned out to be 740 nM; in test [2] it was 785 nM.

In the case of `CNC(=O)c1cnc(Nc2cc(C(=O)N3CCOCC3)ccn2)cc1Nc1ccc(F)cc1OC` [Example 269], the IC50 in test [1] turned out to be 900 nM; in test [2], 1080 nM.

For `CNC(=O)c1cnc(Nc2cc(C(=O)N3CCCC3)ccn2)cc1Nc1cc(F)cc(F)c1OC` [Example 270], the IC50 was determined as 170 nM in test [1] and 221 nM in test [2].

Take `CNC(=O)c1cnc(Nc2cc(C(=O)NCCOC)ccn2)cc1Nc1ccc(F)cc1OC` [Example 271]: the IC50 came out at 820 nM in test [1] and 1180 nM in test [2].

Regarding `CNC(=O)c1cnc(Nc2cc(C(=O)N(C)C)ccn2)cc1Nc1ccc(F)cc1OC` [Example 272], the figures for the IC50 in test [1] and in test [2] were 600 nM and 1060 nM, respectively.

`CNC(=O)c1ccnc(Nc2cc(Nc3cc(F)cc(F)c3OC)c(C(=O)NC)cn2)c1` [Example 273]: the IC50 in test [1] turned out to be 160 nM; in test [2] it was 223 nM.

Consider `CNC(=O)c1cnc(Nc2cc(C(=O)N(C)C)ccn2)cc1Nc1cc(F)cc(F)c1OC` [Example 274], for which the IC50 in test [1] was 190 nM; in test [2], 336 nM.

For `CNC(=O)c1ccnc(Nc2cc(Nc3ccc(F)cc3OC)c(C(=O)NC)cn2)c1` [Example 275], the IC50 was 680 nM in test [1] and 1040 nM in test [2].

Regarding `CNC(=O)c1cnc(Nc2cc(C(N)=O)ccn2)cc1Nc1cccc(F)c1OC` [Example 276], the IC50 in test [1] came out at 1170 nM; in test [2] it was 1340 nM.

Consider `CNC(=O)c1cnc(Nc2cc(C(=O)N(C)C)ccn2)cc1Nc1cccc(F)c1OC` [Example 277], for which the IC50 was determined as 240 nM in test [1] and 270 nM in test [2].

`CNC(=O)c1cnc(Nc2cc(C(=O)NCC#N)ccn2)cc1Nc1cccc(F)c1OC` [Example 278]: the IC50 in test [1] is 960 nM; in test [2], 374 nM.

As to `CNC(=O)c1cnc(Nc2ccc(F)cn2)cc1Nc1ccccc1NS(C)(=O)=O` [Example 279], the IC50 in test [1] came out at 140 nM; in test [2], 476 nM.

As for `CNC(=O)c1cnc(Nc2ccc(F)cn2)cc1Nc1ccccc1NC(C)=O` [Example 280], the IC50 in test [1] was found to be 5990 nM; in test [2], 5050 nM.

Take `CNC(=O)c1cnc(Nc2cc(C#N)ccn2)cc1Nc1ccccc1NS(C)(=O)=O` [Example 281]: the IC50 in test [1] and in test [2] was 140 nM throughout.

Turning to `CNC(=O)c1cnc(Nc2ccc3ccccc3n2)cc1NC1CCCC1(C)F` (stereo not shown) [Example 284], the IC50 in test [1] is 3630 nM; in test [2] it was 3000 nM.

As for `CNC(=O)c1cnc(Nc2ccc3ccccc3n2)cc1NC1CCC(F)CC1` (stereo not shown) [Example 287], the IC50 in test [1] was 10200 nM; in test [2], 7940 nM.

Turning to `CNC(=O)c1cnc(Nc2ccc3ccccc3n2)cc1NC1CCCC1C(N)=O` (stereo not shown) [Example 288], the IC50 was determined as 1310 nM in test [1] and 3150 nM in test [2].

On to `CNC(=O)c1cnc(Nc2ccc(C(F)(F)F)cn2)cc1NC1CCCCC1C(N)=O` (stereo not shown) [Example 290], for which the IC50 amounted to 6590 nM in test [1] and 11400 nM in test [2].
